Entries after “also recorded” stand apart in the source; their conditions may differ.
Columns and labels:
[1] = system: cryopreserved mouse sperm; test: In vitro fertilization with thawed cryopreserved sperm: fertilization rate (#2-cell embryos/# total oocytes); type: cell-based; settings: for effect on fertilization rate / fertility of cryopreserved C57BL/6J sperm: MTG 159 μM to 636 μM in CPM, relative to presently-available methods, FIG. 1
Protocol: The epididymides and vas deferentia are extracted from the C57BL/6J male and placed into the cryoprotective media described herein. […] Incisions are made in the tissues, allowing the sperm to swim out into the CPM; this is allowed for at least 5 but for less than 20 min. The residual tissues are then removed from the collection drop. Ten micro liters of the sperm sample are loaded into as many as one hundred 250 μL French straws (IMV; Maple Grove, Minn.). Two hundred and fifty microliter straws, containing a 5.5 cm column of CPM, a 2.5 cm column of air, a 0.6 cm column of sperm sample followed by a column of air, are sealed with an instantaneous heat sealer. The straws are loaded into cassettes and exposed to liquid nitrogen vapor for at least 10 min before being plunged into the liquid nitrogen. This essentially cools the sperm at 37° C./min.
Subsequent to storage in liquid nitrogen, 3 samples from each treatment are thawed in a 37° C. water bath for 30 sec, and then each 10 μL aliquot is placed directly into its own 500 μL in vitro fertilization (IVF) drop of Cooks Mouse Vitro Fert (Cook Australia; Queensland, Australia). After an hour of incubation, 4 cumulus intact oocyte clutches from superovulated C57BL/6J females are added to the in vitro fertilization drops. IVF is carried out using methods known to those of skill in the art, such as by the methods described by Nakagata. (Nakagata, 2000a; Nakagata, 2000b). The sperm and oocytes are incubated together for 4 hrs before the presumptive zygotes are removed from the IVF drop and placed in a culture drop for overnight incubation.
Approximately 18 hours later, the percentage of oocytes developing into 2-cell embryos is determined (#2-cell embryos/# total oocytes). For statistical analysis, percents are arcsine transformed and the averages of at least 3 IVF drops per treatment are evaluated with a T-Test. A difference between treatments is illustrated with an asterisk (p<0.05). For presentation, means and standard errors were converted back into percents. […]
Ten μL aliquots of sperm from a variety of mouse strains as listed in Table 7 are frozen in the CPM with 477 μM monothioglycerol as ROS(CPM). A total of at least 6 sperm samples per treatment within a strain are utilized. These represented at least 3 samples from each of at least 2 sets of 2 males whose sperm are pooled at the time of collection and then split into the two treatments. Subsequent to thawing the samples are placed directly into their own 500 μL in vitro fertilization (IVF) drop of Cooks Mouse Vitro Fert (Cook Australia; Queensland, Australia; (Quinn et al., 1995)). After an hour incubation, 4 cumulus intact oocyte clutches from isogenic strains were added to the incubation medium. Following a 4 hr co-incubation, the presumptive zygotes were washed and cultured overnight. Approximately 18 hours later, the fertilization rate was determined (% 2 cell: #2-cell embryos/# total oocytes, see Table 7). The average percentage was determined. For each line, about 30 2-cell embryos were implanted into receptive females. After approximately 21 days, the number of live born mice was determined, shown as % Live born in Table 7.
To determine if storage of the cryoprotective media at −80° C. altered the activity of the C57BL/6J mouse sperm., in vitro fertilizations (IVF) were preformed as described previously (see Example 1, also see publications by Nakagata, 2000a; Nakagata, 2000b, Sztein et al. 2000; Byers et al. 2006). Briefly the sperm and oocytes, both from C57BL/6J mice, were incubated together for 4 hrs in a benchtop incubator at 37° C. After 4 hrs of co-incubation the presumptive zygotes were washed through two 150 μL drops of IVF media (MVF; Cook's; Spencer, Ind.) and then cultured overnight. Approximately 18 hrs later, the proportion of oocytes fertilized was calculated by dividing the number of two-cell embryos by the sum of two-cells and normally appearing presumptive one-cell oocytes. […]

Rat Sperm = test: Rat sperm motility after cryopreservation and thawing; type: cell-based, LEW/SsNHsd rat; settings: addition of 477 μM MTG to lactose/egg yolk media
Protocol: The epididymides and vas deferentia were collected from one 33 week old LEW/SsNHsd rat (Harlan, Indianapolis, Ind.). Incisions were made in the tissue and the sperm were allowed to swim out, into 2 mL of a solution containing 8% lactose [w/v] (Sigma Aldrich; St. Louis, Mo.) and 23% egg yolk [v/v] from fresh eggs in distilled water (Invitrogen; Carlsbad, Calif.) for 10 min. The sperm suspension was then split with half being placed into the lactose/egg yolk solution and the other half being suspended in lactose/egg yolk solution containing 954 micromol MTG in 15 mL conical tubes. […] The 15 mL conical tubes containing the sperm samples were placed into a beaker containing ˜150 mL of 15° C. water for 10 min. […]
The sperm were loaded into 250 μL French straws (IMV; Maple Grove, Minn.; cat# AAA201), which were then sealed with an instantaneous heat sealer (model AIE-305HD; American International Electric; Whittier, Calif.) and 5 of them loaded into cassettes (Zanders Medical Supplies; Vero Beach, Fla.). […] The sperm were diluted 1:50 in Cooks Mouse Vitro Fert (Cook's; Spencer, Ind.) and motility was evaluated by counting at least 5 different fields using a video monitor connected to a microscope using a magnification of 40×. […]

[2] = C57BL/6 sperm cryopreserved in CPM containing 1 mM free radical scavenger
[3] = C57BL/6 sperm cryopreserved in CPM containing 5 mM free radical scavenger

Structure (SMILES): O[C@H](CS)[C@H](O)CS (racemic) [DTT, dithiothreitol]
- Fertilization Rate (2-cell embryos of total oocytes) ([1]; C57BL/6 sperm cryopreserved in CPM containing 0.1 mM free radical scavenger): 19.2%
- Fertilization Rate (2-cell embryos of total oocytes) [1, 2]: 2%
- Fertilization Rate (2-cell embryos of total oocytes) [1, 3]: 0.9%
- Fertilization Rate (2-cell embryos of total oocytes) ([1]; C57BL/6 sperm cryopreserved in CPM containing 20 mM free radical scavenger): 6.4%

Structure (SMILES): OCC(O)CS (centres unmarked) [MTG, monothioglycerol]
- rat sperm motility after thawing, effect in words (Rat Sperm): increased motility
- MTG concentration that provided the best results (fertilization rate) ([1]; C57BL/6J sperm, MTG tested from 159 μM to 636 μM): 477 µM
- Fertilization Rate (2-cell embryos of total oocytes) ([1]; C57BL/6 sperm cryopreserved in CPM containing 0.477 mM free radical scavenger): 75.2%
- effect on fertilization rate / fertility of cryopreserved C57BL/6J sperm [1]: improved fertilization rate
- effect on fertilization rate / fertility of cryopreserved C57BL/6J sperm ([1]; listed as monothioglycerol): enhances the fertility

Structure (SMILES): N[C@@H](CCC(=O)N[C@@H](CS)C(=O)NCC(=O)O)C(=O)O [GSH, reduced glutathione]
- Fertilization Rate (2-cell embryos of total oocytes) ([1]; C57BL/6 sperm cryopreserved in CPM containing 0.5 mM free radical scavenger): 59.7%
- Fertilization Rate (2-cell embryos of total oocytes) [1, 2]: 49.5%
- Fertilization Rate (2-cell embryos of total oocytes) [1, 3]: 39.9%
- Fertilization Rate (2-cell embryos of total oocytes) ([1]; C57BL/6 sperm cryopreserved in CPM containing 50 mM free radical scavenger): 0.0%
- effect on fertilization rates / fertility of cryopreserved C57BL/6J sperm ([1]; GSH 500 μM to 5 mM in CPM, compared to CPM without a reducing agent, FIG. 2): increase the fertilization rates; also recorded: enhances the fertility

From US8420307B2, “Sperm cryoprotective media” (The Jackson Laboratory, priority 2006, dated 2013)
